Assay results taken from patent publication US11304939B2, “Methods for treating oral cancers” (Chang Gung University, priority 2020, dated 2022).

Key:
SAS cells [1] = experiment: MTT cell viability assay, SAS cells; format: cell-based; settings: 48 hours; for cell viability / proliferation (MTT): vs vehicle control
Description: (§1) For cell viability assay, approximately 5×10^4 cells were seeded into each well of a 96-well plate, and treated with vehicle control or inhibitors at the indicated concentrations for 48 hours in complete medium, followed by MTT viability assay. The absorbance was read at 540 nm in a multiwell spectrophotometer (SpectraMax M2; Molecular Devices, USA). All samples were run in triplicate. For apoptosis assay, cells were plated in 6-well dishes, and treated with vehicle control or various inhibitors at the indicated concentrations for 48 hours. Cells were then harvested, washed with PBS, and stained with 2 μl an FITC-conjugated Annexin V antibody (Invitrogen, USA) and 50 μg/ml propidium iodide (Sigma-Aldrich, USA), followed by flow cytometry analysis (Attune NxT; Invitrogen, USA) and data analysis by FlowJo software (Tree Star, Inc.).

OEC-M1 cells [2] = experiment: MTT cell viability assay, OEC-M1 cells; format: cell-based; settings: 48 hours; for cell viability / proliferation (MTT): vs vehicle control
Description: as §1

CHK1 = target: T1, CHK1 (Homo sapiens, UniProt O14757); experiment: immunoblotting of UV-induced phosphorylation of CHK1 at Ser296 in SAS cells; settings: SAS cells after UV exposure
T1 sequence (O14757 1-476): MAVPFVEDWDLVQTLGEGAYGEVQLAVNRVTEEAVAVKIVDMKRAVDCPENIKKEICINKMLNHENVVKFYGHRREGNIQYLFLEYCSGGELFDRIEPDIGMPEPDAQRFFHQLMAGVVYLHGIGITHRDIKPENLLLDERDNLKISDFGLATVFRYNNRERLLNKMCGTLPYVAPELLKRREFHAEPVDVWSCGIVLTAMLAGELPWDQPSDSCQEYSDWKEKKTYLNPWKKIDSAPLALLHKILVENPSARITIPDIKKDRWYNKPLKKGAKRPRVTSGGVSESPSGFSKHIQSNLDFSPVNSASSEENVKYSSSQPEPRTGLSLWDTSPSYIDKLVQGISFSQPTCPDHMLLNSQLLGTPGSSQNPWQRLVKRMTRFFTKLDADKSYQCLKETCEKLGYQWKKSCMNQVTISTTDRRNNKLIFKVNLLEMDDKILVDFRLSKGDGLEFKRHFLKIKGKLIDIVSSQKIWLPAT
Description: After treatments, whole-cell lysates from each sample were prepared by lysed with RIPA lysis buffer (1% NP—40, 20 mM Tris-HCl (pH 7.5), 150 mM NaCl, 1 mM Na3VO4, 5 mM EDTA (pH 8.0), 10% glycerol, PMSF, and 0.2% protease inhibitor) for 15-30 minutes on ice, and centrifuged at 15,000×g for 20 min at 4° C. Equal amounts of protein from each sample were fractionated by SDS-PAGE, and transferred to a PVDF membrane, which was incubated with the appropriate primary antibody. Proteins were detected with HRP-conjugated secondary antibodies and ECL substrate (PerkinElmer, USA).
On the molecular level, the biochemical effects of the three CHK1 inhibitors in SAS cells were characterized. DNA damage was first induced by UV exposure, and the CHK1 inhibitors were then applied to the injured cells.

patient #1 PDX = experiment: OSCC PDX model, patient #1, tumor growth; format: in vivo, NSG mice; settings: PF477736 20 mg/kg; for growth of PDX tumors vs control: Cisplatin 5 mg/kg, combined vs control p=0.0024
Description: (§2) For OSCC PDX animal model, three patients of newly diagnosed were recruited, and written consents were obtained in accordance with the protocols approved by the Institutional Review Board of Chang Gung Memorial Hospital. Patient tumor explants were prepared from surgical specimens, and engrafted into NSG mice within 2 hours. Briefly, fresh tumor tissues were rinsed in PBS containing an antibiotic-antimycotic solution (Gibco, USA), and chopped into small pieces (˜1 mm^3). Each NSG mouse was subcutaneously grafted with 50-100 mg tumors in the left flank. When tumors reached 400-500 mm^3 in size, animals were randomly assigned into control and different treatment groups. Treatments for each single drug were the same as those used in the SAS CDX model as described above. For combined treatments, for the combination therapy of Cisplatin and PF477736, Cisplatin was used at the dose of 5 mg/kg, and administered intraperitoneally 2 days/week for one week; whilst PF477736 was used at the dose of 20 mg/kg, and administered intraperitoneally 4 days/week for one week; and for the combination therapy of PF477736 and BYL719, PF477736 was used at the dose of 20 mg/kg, and administered intraperitoneally 4 days/week for one week; whilst BYL719 was used at the dose of 50 mg/kg, and administered orally 5 days/week for two weeks. Tumors were measured with calipers, and the volume was calculated as ½×length×width^2. Three PDX models in total were evaluated for response to single treatments or combined treatments. All animal experiments were approved by the Institutional Animal Care and Use Committee of Chang Gung University.

patient #3 PDX = experiment: OSCC PDX model, patient #3, tumor growth; format: in vivo, NSG mice; settings: Cisplatin 5 mg/kg, PF477736 20 mg/kg, combined vs control p=0.03
Description: For OSCC PDX animal model, three patients of newly diagnosed were recruited, and written consents were obtained in accordance with the protocols approved by the Institutional Review Board of Chang Gung Memorial Hospital. Patient tumor explants were prepared from surgical specimens, and engrafted into NSG mice within 2 hours. Briefly, fresh tumor tissues were rinsed in PBS containing an antibiotic-antimycotic solution (Gibco, USA), and chopped into small pieces (˜1 mm^3). Each NSG mouse was subcutaneously grafted with 50-100 mg tumors in the left flank. When tumors reached 400-500 mm^3 in size, animals were randomly assigned into control and different treatment groups. Treatments for each single drug were the same as those used in the SAS CDX model as described above. […] Tumors were measured with calipers, and the volume was calculated as ½×length×width^2. Three PDX models in total were evaluated for response to single treatments or combined treatments. […]

SAS cells [3] = experiment: apoptosis assay (Annexin V and PI staining), SAS cells; format: cell-based; settings: 48 hours
Description: as §1

OC3 cells = experiment: apoptosis assay (Annexin V and PI staining), OC3 cells; format: cell-based; settings: 48 hours
Description: as §1

OEC-M1 cells [4] = experiment: colony-forming assay, OEC-M1 cells; format: cell-based
SAS cells [5] = experiment: colony-forming assay, SAS cells; format: cell-based
OEC-M1 cells [6] = experiment: apoptosis assay (Annexin V and PI staining), OEC-M1 cells; format: cell-based; settings: 48 hours
Description: as §1

patient #2 PDX = experiment: OSCC PDX model, patient #2, tumor growth; format: in vivo, NSG mice; settings: PF477736 20 mg/kg; for growth of PDX tumors vs control: Cisplatin 5 mg/kg, combined vs control p=0.006
Description: as §2

SAS cells xenograft = experiment: SAS cell line-derived xenograft (OSCC CDX) tumor growth; format: in vivo, NOD/SCID mice
Description: NOD/SCID mice and NOD.Cg-Prkdcscid Il2rgtm1Wjl/SzJ (NSG) mice were housed in an animal facility at Chang Gung University. For SAS cell line-derived xenograft (CDX) animal model, SAS cells were prepared in serum-free DMEM (5×10^6 cells per ml). SAS cell suspensions (100 μl) were injected subcutaneously into NOD/SCID mice (6-8 weeks), and tumors were established after 3-4 weeks. Once xenografts reached 300-500 mm^3, mice were randomly divided into the treatment groups or control groups. PF477736 was used at the dose of 10 or 20 mg/kg, and administered intraperitoneally 4 days/week. BYL719 was used at the dose of 25 or 50 mg/kg, and administered orally 5 days/week. Cisplatin was used at the dose of 5 mg/kg, and administered intraperitoneally 2 days/week. During the course of treatment (two to three weeks), the tumor size was monitored twice weekly, and the tumor volumes were calculated.

AKT = experiment: immunoblotting of phosphorylation of AKT; format: cell-based; settings: after UV exposure
Description: After treatments, whole-cell lysates from each sample were prepared by lysed with RIPA lysis buffer (1% NP_40, 20 mM Tris-HCl (pH 7.5), 150 mM NaCl, 1 mM Na3VO4, 5 mM EDTA (pH 8.0), 10% glycerol, PMSF, and 0.2% protease inhibitor) for 15-30 minutes on ice, and centrifuged at 15,000×g for 20 min at 4° C. Equal amounts of protein from each sample were fractionated by SDS-PAGE, and transferred to a PVDF membrane, which was incubated with the appropriate primary antibody. Proteins were detected with HRP-conjugated secondary antibodies and ECL substrate (PerkinElmer, USA).
In the present study, the efficacy of the PI3K inhibitors (e.g., BYL719, GDC-0941, and GSK1059615) toward eliminating OSCC cell lines (including SAS, OEC-M1, and OC3) was examined. First of all, cell proliferation assays after the PI3K inhibitors (i.e., BYL719, GDC-0941, and GSK1059615) treatments were performed, and the results were provided in FIG. 3A. […] The IC50 for BYL719 in the SAS, OC3, and OECM1 cell lines ranged from 8 to 20 μM (FIG. 3A). Another indication for measuring anti-cancer activity was by investigating the colony-forming ability of SAS and OEC-M1 cells treated with BYL719. […] The effects for PI3K inhibitors on the PI3K/AKT/mTOR signaling pathway were studied as well.

[7] = system: SAS, OC3, and OEC-M1 cells; experiment: MTT cell viability assay, one range over three OSCC cell lines; format: cell-based; settings: OECM1
Description: as §1

OSCC cells = experiment: apoptosis assay (Annexin V staining), OSCC cells; format: cell-based; settings: increasing concentration
Description: as §1

Row | SMILES | cell viability / proliferation (MTT) (SAS cells [1]) | cell viability / proliferation (MTT) (OEC-M1 cells [2]) | growth of PDX tumors vs control (patient #1 PDX) | growth of PDX tumors vs control (patient #3 PDX) | colony-forming ability (OEC-M1 cells [4]) | colony-forming ability (SAS cells [5]) | growth of PDX tumors vs control (patient #2 PDX) | phosphorylation of AKT (AKT) | further results
1 | COc1cccc(OCCCN)c1-c1cc(Nc2cnc(C#N)cn2)n[nH]1 [LY2606368, Prexasertib] | dose-dependent inhibition | dose-dependent inhibition | – | – | – | – | – | – | –
2 | Cn1cc(-c2[nH]c3cc(NC(=O)[C@H](N)C4CCCCC4)cc4c3c2C=NNC4=O)cn1 [PF477736, (R)-2-amino-2-cyclohexyl-N-(2-(1-methyl-1H-pyrazol-4-yl)-6-oxo-5,6-dihydro-1H-[1,2]diazepino[4,5,6-cd]indol-8-yl)acetamide] | dose-dependent inhibition | dose-dependent inhibition | partially but not significantly inhibit the growth | partially but not significantly inhibit the growth | significantly impaired the colony-forming ability | significantly impaired the colony-forming ability | partially but not significantly inhibit the growth | – | phosphorylation of CHK1 at Ser296 (CHK1): specifically reduce phosphorylation of CHK1; IC50 (SAS cells [1]; MTT, read-out: half-maximal inhibitory concentration (IC50)): 120 to 400 nM; cell apoptosis (Annexin V and PI staining) (SAS cells [3]): significantly exacerbated cell apoptosis; cell apoptosis (Annexin V and PI staining) (OC3 cells): significantly exacerbated cell apoptosis; cell apoptosis (Annexin V and PI staining) (OEC-M1 cells [6]): significantly exacerbated cell apoptosis; IC50 (OEC-M1 cells [2]; OECM1, MTT, read-out: half-maximal inhibitory concentration (IC50)): 10 µM; tumor growth vs control (SAS cells xenograft; 10 mg/kg intraperitoneally 4 days/week, p=0.083): could barely suppress tumor growth; tumor growth vs control (SAS cells xenograft; 20 mg/kg intraperitoneally 4 days/week, p=0.081): could barely suppress tumor growth
3 | N.N.[Cl][Pt][Cl] [Cisplatin] | – | – | partially but not significantly inhibit the growth | partially but not significantly inhibit the growth | – | – | partially but not significantly inhibit the growth | – | tumor growth vs control (SAS cells xenograft; 5 mg/kg intraperitoneally 2 days/week, p=0.03): exhibited an ability to inhibit tumor growth
4 | O=C1NC(=O)/C(=C/c2ccc3nccc(-c4ccncc4)c3c2)S1 [GSK1059615, (Z)-5-((4-(pyridin-4-yl)quinolin-6-yl)methylene)thiazolidine-2,4-dione] | clear reduction in proliferation | clear reduction in proliferation | – | – | – | – | – | specifically inhibited phosphorylation of AKT | –
5 | Cc1nc(NC(=O)N2CCC[C@H]2C(N)=O)sc1-c1ccnc(C(C)(C)C(F)(F)F)c1 [BYL719, Alpelisib] | clear reduction in proliferation | clear reduction in proliferation | – | – | compromised in a dose-dependent manner | compromised in a dose-dependent manner | – | specifically inhibited phosphorylation of AKT | tumor growth vs control (patient #1 PDX; BYL719 50 mg/kg, monotherapy p=0.66, combined p=0.844): could not inhibit tumor growth; IC50 [7]: 8 to 20 µM; tumor growth vs control (patient #2 PDX; BYL719 50 mg/kg, monotherapy p=0.16, combined p=0.036): slightly inhibited tumor growth; tumor growth vs control (SAS cells xenograft; 50 mg/kg orally 5 days/week, p=0.011): significantly suppressed tumor growth; cell apoptosis (Annexin V staining) (OSCC cells): gradually elevation in apoptosis
6 | CS(=O)(=O)N1CCN(Cc2cc3nc(-c4cccc5[nH]ncc45)nc(N4CCOCC4)c3s2)CC1 [GDC-0941, Pictilisib] | clear reduction in proliferation | clear reduction in proliferation | – | – | – | – | – | specifically inhibited phosphorylation of AKT | –
